According to article PMC12251151, “Understanding Anti-Obesity Potential of Four Porphyrin Compounds by Investigating Pancreatic Lipase Inhibition” (Molecules, 2025):

Experiments:
pancreatic lipase (PL) [1] = target: T1, pancreatic lipase (PL) (Sus scrofa, UniProt P00591); assay: Mode of pancreatic lipase inhibition (reversibility, Lineweaver-Burk kinetics); format: biochemical, porcine; conditions: for Reversibility of PL inhibition: enzyme concentration vs reaction rate plots; for Ki: uncompetitive model, intercept replot
T1 construct: lipase (porcine pancreas); purchased Shanghai Yuanye Co., Ltd., Shanghai, China; host or cells: porcine pancreas
T1 sequence (P00591 1-450): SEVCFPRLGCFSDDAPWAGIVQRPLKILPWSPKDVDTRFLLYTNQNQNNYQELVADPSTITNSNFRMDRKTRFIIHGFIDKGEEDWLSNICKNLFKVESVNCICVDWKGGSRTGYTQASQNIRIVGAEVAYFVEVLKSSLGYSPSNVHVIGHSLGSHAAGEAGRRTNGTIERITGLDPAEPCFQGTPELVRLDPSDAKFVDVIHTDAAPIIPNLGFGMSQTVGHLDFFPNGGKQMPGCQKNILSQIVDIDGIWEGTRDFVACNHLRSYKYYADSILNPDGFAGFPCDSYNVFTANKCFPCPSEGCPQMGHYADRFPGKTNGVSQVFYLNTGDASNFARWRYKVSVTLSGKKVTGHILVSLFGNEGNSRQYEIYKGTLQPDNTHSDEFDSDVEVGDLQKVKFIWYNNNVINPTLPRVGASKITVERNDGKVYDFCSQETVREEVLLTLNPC
Description: In the formula, v , Vmax, Km, and Ki represent reaction rate, maximum reaction rate, Michaelis constant, and free enzyme inhibition constant, respectively. [S] denotes the substrate concentration. [I] denotes the inhibitor concentration.
By analyzing the relationship between enzyme concentration and reaction rate, a fitting straight line was drawn to determine whether it was reversible.
The concentration of PL was fixed at 5 mg/mL, and the concentration of the substrate 4-nitrophenyl laurate was changed (0.40, 0.80, 1.20, 1.60 mg/mL). By analyzing the relationship between the concentration of different substrates and the reaction rate of the enzyme, the Lineweaver–Burk double reciprocal curve was plotted to determine the inhibition type and calculate the inhibition constant.

pancreatic lipase (PL) [2] = target: T1, pancreatic lipase (PL); assay: FT-IR spectroscopy secondary structure analysis of PL-porphyrin complex; design: species or system porcine; conditions: PL:porphyrin molar ratio 1:2; for β-Antiparallel of PL in complex: PL alone 7.78 ± 0.02; for Random Coil of PL in complex: PL alone 16.30 ± 0.04; for β-Turn of PL in complex: PL alone 23.12 ± 0.03; for α-Helix of PL in complex: PL alone 25.48 ± 0.06; for β-Sheet of PL in complex: PL alone 27.31 ± 0.06
Excerpt: The effects of four porphyrin compounds on the secondary structure of PL were further studied by FT-IR spectroscopy. The amide I band (1700–1600 cm^−1, mainly C=O stretching) and the amide II band (1600–1500 cm^−1, mainly C-N stretching) are important spectral bands for studying the secondary structure of proteins. Because the regions of amide I band located at 1649–1660, 1615–1637, 1661–1680, 1638–1648, and 1681–1692 cm^−1 after curve fitting represent α-helix, β-sheet, β-turn, random coil and β-antiparallel, respectively, and the signal intensity is high, it is more widely evaluated than the amide II band.
The pancreatic lipase-porphyrin compound solution with a molar ratio of 1:2 was placed in a freeze-centrifugal concentrator Auto R1-plus (Beijing Jiaimu, Beijing, China). The dried solid samples were obtained and mixed with dried KBr, ground, and pressed into tablets, and then detected by Nicolet IS-50 (ThermoFisher, Waltham, MA, USA) instrument. The scanning range was 400–4000 cm^−1 and the resolution was 4 cm^−1. Peakfit V4.12 software was used to fit the amide I region (1600–1700 cm^−1) of pancreatic lipase.

pancreatic lipase (PL) [3] = target: T1, pancreatic lipase (PL); assay: In vitro stability (temperature and acid-base pre-treatment, then PL inhibition); format: physicochemical, porcine; conditions: 20 min treatment with buffers pH 2.0-10.0
Description: Temperature stability study. Sample pre-treatment: 1000 μL samples were bathed in water at different temperatures (30, 40, 50, 60, 70, 80, 90, 100 °C) for 20 min, and cooled rapidly.
Acid-base stability study. Sample pre-treatment: 1000 μL samples were treated with buffers of different pH (2.0, 3.0, 4.0, 5.0, 6.0, 7.0, 8.0, 9.0, and 10.0) for 20 min, and then the pH was adjusted back to 6.9–7.3.
PL inhibition experiments were the same as Section 3.2.1. A total of 200 μL pre-treated four porphyrin compounds, 500 μL of 4-nitrophenyl laurate (0.80 mg/mL), 400 μL of Tris-HCl buffer (pH 8.2, 0.1 mol/L), and 300 μL of pancreatic lipase (5 mg/mL) were reacted in an incubator at 37 °C for 2 h. The reaction solution was centrifuged at 12,000 rpm for 5 min, and 200 μL of the supernatant was added to a 96-well plate. The absorbance at 420 nm was measured. The temperature stability range was determined by comparing the inhibition rate of the samples treated at different temperatures. The range of acid-base stability was determined by comparing the changes in inhibition rate.

Row | Reversibility of PL inhibition (pancreatic lipase (PL) [1]) | Ki (pancreatic lipase (PL) [1]) | β-Antiparallel of PL in complex (pancreatic lipase (PL) [2]) | Random Coil of PL in complex (pancreatic lipase (PL) [2]) | β-Turn of PL in complex (pancreatic lipase (PL) [2]) | α-Helix of PL in complex (pancreatic lipase (PL) [2]) | β-Sheet of PL in complex (pancreatic lipase (PL) [2]) | pH range in which PL inhibitory activity changed little (acid-base stability) (pancreatic lipase (PL) [3]) | SMILES | other results
1 | reversible | 149.9 ± 0.195 µM | 8.26 ± 0.02% | 24.25 ± 0.07% | 18.09 ± 0.04% | 12.81 ± 0.03% | 36.59 ± 0.07% | 2.0~9.0 pH | Nc1ccc(-c2c3nc(c(-c4ccc(N)cc4)c4ccc([nH]4)c(-c4ccc(N)cc4)c4nc(c(-c5ccc(N)cc5)c5ccc2[nH]5)C=C4)C=C3)cc1 [TAPP, 5,10,15,20-Tetrakis (4-aminophenyl) porphyrin] | Vmax (pancreatic lipase (PL) [1]; inhibitor C 118.55 μM): 0.0023 ± 0.0003 ΔOD/min; Vmax (pancreatic lipase (PL) [1]; inhibitor C 177.83 μM): 0.0018 ± 0.0003 ΔOD/min; Vmax (pancreatic lipase (PL) [1]; inhibitor C 237.11 μM): 0.0016 ± 0.0006 ΔOD/min; Vmax (pancreatic lipase (PL) [1]; inhibitor C 266.75 μM): 0.0015 ± 0.0003 ΔOD/min; Vmax (pancreatic lipase (PL) [1]; inhibitor C 296.38 μM): 0.0014 ± 0.0005 ΔOD/min
2 | reversible | 37.03 ± 0.186 µM | 8.32 ± 0.01% | 20.38 ± 0.02% | 19.70 ± 0.04% | 13.96 ± 0.04% | 37.64 ± 0.05% | 2.0~10.0 pH | Oc1ccc(-c2c3nc(c(-c4ccc(O)cc4)c4ccc([nH]4)c(-c4ccc(O)cc4)c4nc(c(-c5ccc(O)cc5)c5ccc2[nH]5)C=C4)C=C3)cc1 [THPP, 5,10,15,20-Tetrakis (4-hydroxyphenyl) porphyrin] | Vmax (pancreatic lipase (PL) [1]; inhibitor C 36.84 μM): 0.0041 ± 0.0009 ΔOD/min; Vmax (pancreatic lipase (PL) [1]; inhibitor C 73.67 μM): 0.0035 ± 0.0013 ΔOD/min; Vmax (pancreatic lipase (PL) [1]; inhibitor C 147.34 μM): 0.0018 ± 0.0007 ΔOD/min; Vmax (pancreatic lipase (PL) [1]; inhibitor C 221.01 μM): 0.0012 ± 0.0004 ΔOD/min; Vmax (pancreatic lipase (PL) [1]; inhibitor C 294.68 μM): 0.0009 ± 0.0002 ΔOD/min
3 | reversible | 196.15 ± 0.131 µM | 0.87 ± 0.01% | 23.40 ± 0.06% | 13.51 ± 0.03% | 15.78 ± 0.05% | 46.44 ± 0.13% | 2.0~10.0 pH | O=C([O-])c1ccc(C2=C3C=CC(=N3)C(c3ccc(C(=O)[O-])cc3)=C3C=CC(=N3)C(=c3ccc(=C([O-])[O-])cc3)c3ccc([n-]3)C(c3ccc(C(=O)[O-])cc3)=C3C=CC2=N3)cc1.[67Cu+2].[H+].[H+].[H+].[H+] [Cu-TCPP, Cu (II) meso-Tetra (4-carboxyphenyl) porphine] | Km (pancreatic lipase (PL) [1]; inhibitor C 29.33 μM): 0.192 ± 0.0049 µM; Vmax (pancreatic lipase (PL) [1]; inhibitor C 29.33 μM): 0.0052 ± 0.0013 ΔOD/min; Km (pancreatic lipase (PL) [1]; inhibitor C 58.66 μM): 0.164 ± 0.0037 µM; Vmax (pancreatic lipase (PL) [1]; inhibitor C 58.66 μM): 0.0044 ± 0.0009 ΔOD/min; Km (pancreatic lipase (PL) [1]; inhibitor C 117.33 μM): 0.133 ± 0.0022 µM; Vmax (pancreatic lipase (PL) [1]; inhibitor C 117.33 μM): 0.0036 ± 0.0006 ΔOD/min; Km (pancreatic lipase (PL) [1]; inhibitor C 175.99 μM): 0.112 ± 0.0046 µM; Vmax (pancreatic lipase (PL) [1]; inhibitor C 175.99 μM): 0.0030 ± 0.0012 ΔOD/min; Km (pancreatic lipase (PL) [1]; inhibitor C 234.66 μM): 0.0988 ± 0.0017 µM; Vmax (pancreatic lipase (PL) [1]; inhibitor C 234.66 μM): 0.0026 ± 0.0005 ΔOD/min
4 | reversible | 53.49 ± 0.141 µM | 4.82 ± 0.01% | 24.70 ± 0.06% | 10.43 ± 0.03% | 22.26 ± 0.08% | 37.79 ± 0.12% | 2.0~10.0 pH | O=C(O)c1ccc(-c2c3nc(c(-c4ccc(C(=O)O)cc4)c4ccc([nH]4)c(-c4ccc(C(=O)O)cc4)c4nc(c(-c5ccc(C(=O)O)cc5)c5ccc2[nH]5)C=C4)C=C3)cc1 [TCPP, meso-Tetra (4-carboxyphenyl) porphine] | Vmax (pancreatic lipase (PL) [1]; inhibitor C 12.65 μM): 0.0042 ± 0.0011 ΔOD/min; Vmax (pancreatic lipase (PL) [1]; inhibitor C 31.61 μM): 0.0037 ± 0.0008 ΔOD/min; Vmax (pancreatic lipase (PL) [1]; inhibitor C 63.23 μM): 0.0027 ± 0.0012 ΔOD/min; Vmax (pancreatic lipase (PL) [1]; inhibitor C 126.45 μM): 0.0015 ± 0.0004 ΔOD/min; Vmax (pancreatic lipase (PL) [1]; inhibitor C 189.68 μM): 0.0012 ± 0.0003 ΔOD/min
